Measured values from the supplement of paper PMC10307832.

Experiments:
Experiment in all cases: relative viability (nuclei count vs DMSO), 5 days (fraction); higher = more cells survive
[1] = compound: Cn1cc(-c2cnn3c(N)c(Br)c([C@@H]4CCCNC4)nc23)cn1 + CC(=O)c1c(C)c2cnc(Nc3ccc(N4CCNCC4)cn3)nc2n(C2CCCC2)c1=O [Palbociclib] (partner 0.5 µM)
How it was run: (§1)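 Values are medians from duplicate plates. Each reflects relative viability, defined as the nuclei count of treated wells over that of vehicle wells. Lung cancer cell lines in 1536-well plates were pin-tool dosed one day after seeding with one drug alone or with a fixed anchor-drug dose plus five library-drug doses (not always all listed) in √10 steps, then fixed, stained and imaged at 4× after 5 days.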

[2] = compound: Cn1cc(-c2cnn3c(N)c(Br)c([C@@H]4CCCNC4)nc23)cn1 + CC(C)C[C@H](NC(=O)[C@H](Cc1ccccc1)NC(=O)c1cnccn1)B(O)O [Bortezomib] (partner 0.002 µM)
How it was run: as §1

[3] = compound: Cn1cc(-c2cnn3c(N)c(Br)c([C@@H]4CCCNC4)nc23)cn1 + COc1cc2c(Oc3ccc(NC(=O)C4(C(=O)Nc5ccc(F)cc5)CC4)cc3F)ccnc2cc1OCCCN1CCOCC1 [Foretinib] (partner 0.25 µM)
How it was run: as §1

[4] = compound: Cn1cc(-c2cnn3c(N)c(Br)c([C@@H]4CCCNC4)nc23)cn1 + CS(=O)(=O)N1CCN(Cc2cc3nc(-c4cccc5[nH]ncc45)nc(N4CCOCC4)c3s2)CC1 [Pictilisib] (partner 1 µM)
How it was run: as §1

In the case of ChaGo-K-1, the relative viability ([1]; first compound 0.05 µM) is reported as 0.956, the relative viability ([1]; first compound 0.1581 µM) is reported as 0.98 and the relative viability ([1]; first compound 0.5 µM) is reported as 0.911. The relative viability ([1]; first compound 1.581 µM) was 0.869, the relative viability ([1]; first compound 5 µM) was 0.97 and the relative viability ([2]; first compound 0.05 µM) was 0.909. The relative viability ([2]; first compound 0.1581 µM) was 1.01, the relative viability ([2]; first compound 0.5 µM) was 0.826 and the relative viability ([2]; first compound 1.581 µM) was 0.717. The relative viability ([2]; first compound 5 µM) was 0.682, the relative viability ([3]; first compound 0.05 µM) was 0.937 and the relative viability ([3]; first compound 0.1581 µM) was 0.934. It also gave a relative viability ([3]; first compound 0.5 µM) of 0.873, a relative viability ([3]; first compound 1.581 µM) of 0.888 and a relative viability ([3]; first compound 5 µM) of 0.78. For the same cell line, the relative viability ([4]; first compound 0.05 µM) was 0.708, the relative viability ([4]; first compound 0.1581 µM) was 0.672 and the relative viability ([4]; first compound 0.5 µM) was 0.65. For the same cell line, the relative viability ([4]; first compound 1.581 µM) was 0.617 and the relative viability ([4]; first compound 5 µM) was 0.501.

EKVX was tested, and the relative viability ([1]; first compound 0.05 µM) was 0.368, the relative viability ([1]; first compound 0.1581 µM) was 0.376 and the relative viability ([1]; first compound 0.5 µM) was 0.383. It also gave a relative viability ([1]; first compound 1.581 µM) of 0.413, a relative viability ([1]; first compound 5 µM) of 0.355 and a relative viability ([2]; first compound 0.05 µM) of 1.06. The relative viability ([2]; first compound 0.1581 µM) was 1.16, the relative viability ([2]; first compound 0.5 µM) was 0.987 and the relative viability ([2]; first compound 1.581 µM) was 0.836. For the same cell line, the relative viability ([2]; first compound 5 µM) was 1.07, the relative viability ([3]; first compound 0.05 µM) was 0.749 and the relative viability ([3]; first compound 0.1581 µM) was 0.925. The relative viability ([3]; first compound 0.5 µM) was 0.699, the relative viability ([3]; first compound 1.581 µM) was 0.816 and the relative viability ([3]; first compound 5 µM) was 0.469. For the same cell line, the relative viability ([4]; first compound 0.05 µM) was 0.507, the relative viability ([4]; first compound 0.1581 µM) was 0.506 and the relative viability ([4]; first compound 0.5 µM) was 0.507. The relative viability ([4]; first compound 1.581 µM) was 0.469 and the relative viability ([4]; first compound 5 µM) was 0.396.

Cell Line EMC-BAC-2 has a relative viability ([1]; first compound 0.05 µM) of 0.533, a relative viability ([1]; first compound 0.1581 µM) of 0.52 and a relative viability ([1]; first compound 0.5 µM) of 0.527. It also gave a relative viability ([1]; first compound 1.581 µM) of 0.445, a relative viability ([1]; first compound 5 µM) of 0.43 and a relative viability ([2]; first compound 0.05 µM) of 1.04. It also gave a relative viability ([2]; first compound 0.1581 µM) of 1.14, a relative viability ([2]; first compound 0.5 µM) of 1.13 and a relative viability ([2]; first compound 1.581 µM) of 1.02. The relative viability ([2]; first compound 5 µM) was 1.15, the relative viability ([3]; first compound 0.05 µM) was 1 and the relative viability ([3]; first compound 0.1581 µM) was 1.11. The relative viability ([3]; first compound 0.5 µM) was 1.02, the relative viability ([3]; first compound 1.581 µM) was 0.977 and the relative viability ([3]; first compound 5 µM) was 0.926. For the same cell line, the relative viability ([4]; first compound 0.05 µM) was 0.545, the relative viability ([4]; first compound 0.1581 µM) was 0.561 and the relative viability ([4]; first compound 0.5 µM) was 0.531. It also gave a relative viability ([4]; first compound 1.581 µM) of 0.475 and a relative viability ([4]; first compound 5 µM) of 0.509.

Cell Line EPLC-272H has a relative viability ([1]; first compound 0.05 µM) of 0.294, a relative viability ([1]; first compound 0.1581 µM) of 0.312 and a relative viability ([1]; first compound 0.5 µM) of 0.311. The relative viability ([1]; first compound 1.581 µM) was 0.273, the relative viability ([1]; first compound 5 µM) was 0.25 and the relative viability ([2]; first compound 0.05 µM) was 0.853. The relative viability ([2]; first compound 0.1581 µM) was 0.891, the relative viability ([2]; first compound 0.5 µM) was 0.933 and the relative viability ([2]; first compound 1.581 µM) was 0.769. For the same cell line, the relative viability ([2]; first compound 5 µM) was 0.82, the relative viability ([3]; first compound 0.05 µM) was 0.794 and the relative viability ([3]; first compound 0.1581 µM) was 0.723. The relative viability ([3]; first compound 0.5 µM) was 0.603, the relative viability ([3]; first compound 1.581 µM) was 0.514 and the relative viability ([3]; first compound 5 µM) was 0.25. For the same cell line, the relative viability ([4]; first compound 0.05 µM) was 0.289, the relative viability ([4]; first compound 0.1581 µM) was 0.291 and the relative viability ([4]; first compound 0.5 µM) was 0.277. The relative viability ([4]; first compound 1.581 µM) was 0.211 and the relative viability ([4]; first compound 5 µM) was 0.21.

H3255 showed a relative viability ([1]; first compound 0.05 µM) of 0.314, a relative viability ([1]; first compound 0.1581 µM) of 0.342 and a relative viability ([1]; first compound 0.5 µM) of 0.323. The relative viability ([1]; first compound 1.581 µM) was 0.291, the relative viability ([1]; first compound 5 µM) was 0.277 and the relative viability ([2]; first compound 0.05 µM) was 0.676. The relative viability ([2]; first compound 0.1581 µM) was 0.787, the relative viability ([2]; first compound 0.5 µM) was 0.854 and the relative viability ([2]; first compound 1.581 µM) was 0.792. The relative viability ([2]; first compound 5 µM) was 0.441, the relative viability ([3]; first compound 0.05 µM) was 0.843 and the relative viability ([3]; first compound 0.1581 µM) was 0.998. The relative viability ([3]; first compound 0.5 µM) was 0.998, the relative viability ([3]; first compound 1.581 µM) was 0.971 and the relative viability ([3]; first compound 5 µM) was 0.83. The relative viability ([4]; first compound 0.05 µM) was 0.489, the relative viability ([4]; first compound 0.1581 µM) was 0.488 and the relative viability ([4]; first compound 0.5 µM) was 0.427. The relative viability ([4]; first compound 1.581 µM) was 0.425 and the relative viability ([4]; first compound 5 µM) was 0.327.

HARA was tested, and the relative viability ([1]; first compound 0.05 µM) was 0.246, the relative viability ([1]; first compound 0.1581 µM) was 0.264 and the relative viability ([1]; first compound 0.5 µM) was 0.322. The relative viability ([1]; first compound 1.581 µM) was 0.299, the relative viability ([1]; first compound 5 µM) was 0.158 and the relative viability ([2]; first compound 0.05 µM) was 1.19. It also gave a relative viability ([2]; first compound 0.1581 µM) of 1.16, a relative viability ([2]; first compound 0.5 µM) of 1.18 and a relative viability ([2]; first compound 1.581 µM) of 0.764. The relative viability ([2]; first compound 5 µM) was 0.224, the relative viability ([3]; first compound 0.05 µM) was 1.07 and the relative viability ([3]; first compound 0.1581 µM) was 1.05. The relative viability ([3]; first compound 0.5 µM) was 0.706, the relative viability ([3]; first compound 1.581 µM) was 0.798 and the relative viability ([3]; first compound 5 µM) was 0.207. For the same cell line, the relative viability ([4]; first compound 0.05 µM) was 0.463, the relative viability ([4]; first compound 0.1581 µM) was 0.345 and the relative viability ([4]; first compound 0.5 µM) was 0.372. For the same cell line, the relative viability ([4]; first compound 1.581 µM) was 0.438 and the relative viability ([4]; first compound 5 µM) was 0.207.

HCC-15 gave a relative viability ([1]; first compound 0.05 µM) of 0.71, a relative viability ([1]; first compound 0.1581 µM) of 0.785 and a relative viability ([1]; first compound 0.5 µM) of 0.721. For the same cell line, the relative viability ([1]; first compound 1.581 µM) was 0.604, the relative viability ([1]; first compound 5 µM) was 0.591 and the relative viability ([2]; first compound 0.05 µM) was 1.16. The relative viability ([2]; first compound 0.1581 µM) was 1.18, the relative viability ([2]; first compound 0.5 µM) was 1.03 and the relative viability ([2]; first compound 1.581 µM) was 0.788. The relative viability ([2]; first compound 5 µM) was 1.11, the relative viability ([3]; first compound 0.05 µM) was 1.09 and the relative viability ([3]; first compound 0.1581 µM) was 1.09. For the same cell line, the relative viability ([3]; first compound 0.5 µM) was 1.05, the relative viability ([3]; first compound 1.581 µM) was 0.941 and the relative viability ([3]; first compound 5 µM) was 1. The relative viability ([4]; first compound 0.05 µM) was 0.798, the relative viability ([4]; first compound 0.1581 µM) was 0.768 and the relative viability ([4]; first compound 0.5 µM) was 0.757. The relative viability ([4]; first compound 1.581 µM) was 0.634 and the relative viability ([4]; first compound 5 µM) was 0.764.

With HCC-44 the relative viability ([1]; first compound 0.05 µM) was 0.876, the relative viability ([1]; first compound 0.1581 µM) was 0.957 and the relative viability ([1]; first compound 0.5 µM) was 0.978. The relative viability ([1]; first compound 1.581 µM) was 0.964, the relative viability ([1]; first compound 5 µM) was 0.952 and the relative viability ([2]; first compound 0.05 µM) was 0.91. It also gave a relative viability ([2]; first compound 0.1581 µM) of 1.11, a relative viability ([2]; first compound 0.5 µM) of 0.923 and a relative viability ([2]; first compound 1.581 µM) of 0.882. For the same cell line, the relative viability ([2]; first compound 5 µM) was 0.796, the relative viability ([4]; first compound 0.05 µM) was 0.566 and the relative viability ([4]; first compound 0.1581 µM) was 0.577. It also gave a relative viability ([4]; first compound 0.5 µM) of 0.63, a relative viability ([4]; first compound 1.581 µM) of 0.465 and a relative viability ([4]; first compound 5 µM) of 0.427.
